# Test results as given in US20150272934A1, “USE OF CSE INHIBITORS FOR THE TREATMENT OF CUTANEOUS INJURIES OR CONDITIONS AND SLEEP-RELATED BREATHING DISORDERS” (SOVA PHARMACEUTICALS, INC., priority 2012, published 2015).
# What was measured:
# [1] = test system: hypoxic ventilatory response; experiment: Rat hypoxic ventilatory response (HVR) in sham and carotid sinus nerve (CSN) transection animals; format: in vivo, Sprague Dawley rats; details: 100 mg/kg L-PAG
# Procedure: Male Sprague Dawley rats from Harlan Laboratories weighing 350±31 g (Mean±SD); were maintained on a 12 hour light:dark cycle (6 am lights on) with food and water ad libitum.
# L-Propargyl Glycine (L-PAG) was solubilized in saline at 33.3 mg/ml.
# Carotid sinus nerve (CSN) transaction—Under appropriate anesthesia the rat's neck is shaved and prepped for surgery with betadine solution. An incision is made in the throat area extending about 2 cm. The underlying musculature is incised to expose the carotid bifurcation on both sides. A silk suture is looped around the proximal external carotid and retracted laterally for control. […] The carotid sinus nerve is transected where it originates on the exposed part of the glossopharyngeal and ascends to the carotid bifurcation.
# Animals were pre-habituated to the test environment on 2 separate 45 minute periods prior to the test day. Following administration of test compounds animals were placed inside the whole body plethysmography chamber. The animals were allowed to acclimate to the environment for 60 minutes while breathing a 21% O2 balance N2 gas mix. After acclimation, the following gas mix protocol was followed:
# Cycles were designated to be the periods of both normoxia and hypoxia. Each experiment consisted of 2 cycles (or repeated sets) of the HVR to a normoxic-hypoxic shift. The cycles were 30 minutes in duration to allow for serial sampling from baseline and all 4 WBP test chambers. Each sampling period was of 4 minutes duration and was in a varying order but was always preceded by a 4 minute baseline. The sampling periods were calculated to allow for equilibration of the gas mixture in the WBP chamber. Switching of the multiplexer (MUX) line sampler system was achieved through use of a user defined program. The gas mixtures were likewise switched automatically using a user defined custom mix program and the Sable Systems/Alicat Multi Flow Controller utility.
# Analysis of data was performed in GraphPad Prism (v5) using embedded 1-way Analysis of Variance (ANOVA) followed by Dunnett's or Tukey's MCT post hoc testing where appropriate. Bartlett's Equal Variance tests were performed on all data sets, however failure of equal variance was not considered to impinge the validity of the test.
# [2] = test system: deep partial thickness cutaneous burn injury, zone of stasis; experiment: Comb burn model for cutaneous burn; format: in vivo, Sprague-Dawley rats
# [3] = Half-life of L-propargylglycine (statement in dosing rationale)
smiles,measurement,setting,value
C#CC[C@H](N)C(=O)O [L-propargylglycine],HVR (change in slope of minute ventilation),[1]; CSN transection animals,did not change
same,Increase of minute ventilation (VE) when FiO2 changed from 21% to 10%,[1]; CSN transection animals,22%
same,Increase of minute ventilation (VE) when FiO2 changed from 21% to 10%,[1]; sham animals,51%
same,HVR (change in slope of minute ventilation),"[1]; sham animals, p<0.05",significantly reduced
same,Viability of zones of stasis/interspaces on gross examination (burn progression),"[2]; L-propargylglycine 100 mg/kg IP Day 0, Compound 1 20 mg/kg PO once daily, 6-day time course, versus control animals",maintain viability
same,Perfusion in zones of stasis/interspace areas (LDI analysis),"[2]; over time course, control animals showed a decrease in perfusion",perfusion is maintained
same,Blinded photo grading of treated interspaces versus control interspaces,"[2]; within 48-72 hours, less injured versus worse/the same scale",less injured than controls
same,half-life,[3],very long
